How the values were obtained:
Fusarium oxysporum = experiment: Checkerboard titration / MIC determination in microtiter plates (turbidity, fungal growth); type: cell-based; conditions: agent alone; percent by weight
Method: (§1) A test system was set up with two of most common soil inhabitating plant pathogenic fungi causing high losses in green houses: Fusarium oxysporum, and Rhizoctonia solani. Garlic oil was used as the source of allyl sulphides.
(§2) The synergistic action between this oil and eugenol or thymol was tested in Checkerboard titration experiments. The ‘checkerboard’ is the inhibitory pattern found for multiple combinations of two antimicrobial agents in concentrations equal to, above, and below their minimal inhibitory concentration for the organism being tested. These multiple combinations of antimicrobial agents are prepared in microtiter plates. The checkerboard consists then of columns which contain the same amount of one antimicrobial which is diluted along the x-axis and rows which each contain the same amount of the other antimicrobial (diluted along the y-axis). Thus, each well of the microtiter plate is a unique combination of the two agents.
(§3) A method of quantitating synergy is the ‘fractional inhibitory concentration’ (FIC) index. For each row, the FIC index is calculated from the lowest concentration of agents necessary to inhibit growth. The FIC of each agent is derived by dividing the concentration of the agent present in that well of the microtiter plate by the minimal inhibitory concentration (MIC) needed of that agent alone to inhibit the organism. The FIC index is then the sum of these values for both antibacterial agents in that well of the microtiter plate. Fractional inhibitory concentration indices are then used as measure of synergy. The FIC index is calculated for each row as follows:
(§4) where MICa, MICb are the minimal inhibitory concentration (MIC) of compound A and B in the mixture, and MICA, MICB are the MIC of A and B when used alone. When the lowest FIC index obtained in a microtiter plate in this way is less than 1, the combination is synergistic. When the FIC index is 1, the combination is additive.
(§5) All examples were made using routine techniques for MIC determination. The dilutions of the active agents were prepared in dimethylsulfoxide, and 2 μl aliquots of the different stock solutions of each of the two agents were then added to individual wells of the microtiter plates to obtain the desired checkerboard as described above. Fungi were swabbed from agar plates and suspended in 10 ml of Sabouraud liquid medium. The fungal suspensions was diluted 20 fold in the same growth medium. To each well of the microtiter plates 100 μl of such a diluted suspension of the test organism was distributed. The plates were covered with plastic films and incubated for 48 h at 30° C. with shaking at 250 rpm. The turbidity was then measured with a microplate reader to determine fungal growth. […]

Rhizoctonia solani = experiment: as above; type: cell-based; conditions: agent alone; percent by weight
Method: as §1, §2, §3, §4, §5

| SMILES | MIC of pure compounds, F. oxysporum (Fusarium oxysporum) [%] | MIC of pure compounds, R. solani (Rhizoctonia solani) [%] |
| --- | --- | --- |
| C=CCc1ccc(O)c(OC)c1 [eugenol, 4-hydroxy-3-methoxy-1-allylbenzene] | 0.05 | 0.025 |
| Cc1ccc(C(C)C)c(O)c1 [thymol, 1-methyl-3-hydroxy-4-iso-propylbenzene] | 0.05 | 0.0125 |
